Measured values reported in patent US10745382B2 (BRISTOL-MYERS SQUIBB COMPANY, priority 2015, dated 2020).

Biological target: T1, PD-1/PD-L1 (Homo sapiens, UniProt Q9NZQ7)
T1 construct: made in house; host or cells: HEK293T
Assay: PD-1/PD-L1 Homogenous Time-Resolved Fluorescence (HTRF) binding assay
Conditions: PD-L1-His 10 nM, PD-1-Ig 20 nM; value given as range class; read-out: Range or IC50
Summary of the method: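 Additional pairs run were PD-1-Ig with PD-L2-His (20 & 5 nM) and CD80-His with PD-L1-Ig (100 & 10 nM), all human proteins. Buffer: dPBS plus 0.1% BSA, 0.05% Tween-20; time-resolved FRET read-out via 1 nM Eu-cryptate anti-Ig and 20 nM APC anti-His, final concentrations.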

T1 sequence (Q9NZQ7 with tags, fused parts or gaps): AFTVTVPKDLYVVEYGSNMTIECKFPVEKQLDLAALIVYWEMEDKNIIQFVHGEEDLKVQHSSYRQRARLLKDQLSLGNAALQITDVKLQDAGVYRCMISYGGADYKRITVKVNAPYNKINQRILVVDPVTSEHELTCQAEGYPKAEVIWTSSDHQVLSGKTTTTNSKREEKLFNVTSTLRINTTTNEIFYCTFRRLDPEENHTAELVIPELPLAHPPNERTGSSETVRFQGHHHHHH

IC50, 0.21 to 10 nM:
CCOC(=O)C1(CO)CCN(CCCOc2cccc(-c3cccc(COc4cc(OCc5cncc(C#N)c5)c(CN[C@](C)(CO)C(=O)O)cc4Cl)c3C)c2C)C1 (stereo partly drawn) [Example 1049, (2R)-2-((5-chloro-2-((5-cyanopyridin-3-yl)methoxy)-4-((3′-(3-(3-(ethoxycarbonyl)-3-(hydroxymethyl)pyrrolidin-1-yl)propoxy)-2,2′-dimethyl-[1,1′-biphenyl]-3-yl)methoxy)benzyl)amino)-3-hydroxy-2-methylpropanoic Acid]
Cc1c(COc2cc(OCc3cncc(S(C)(=O)=O)c3)c(CN[C@H](CO)C(=O)O)cc2Cl)cccc1-c1cccc(OCCCN2CCC(CO)(C(=O)O)C2)c1C (stereo partly drawn) [Example 1050, 1-(3-((3′-((4-((((R)-1-carboxy-2-hydroxyethyl)amino)methyl)-2-chloro-5-((5-(methylsulfonyl)pyridin-3-yl)methoxy)phenoxy)methyl)-2,2′-dimethyl-[1,1′-biphenyl]-3-yl)oxy)propyl)-3-(hydroxymethyl)pyrrolidine-3-carboxylic Acid]
Cc1c(COc2cc(OCc3cncc(C#N)c3)c(CN[C@](C)(CO)C(=O)O)cc2Cl)cccc1-c1cccc(OCCCN2CCC(CO)(C(=O)O)C2)c1C (some centres unmarked) [Example 1051]
Cc1c(COc2cc(OCc3cncc(C#N)c3)c(CN[C@H](CO)C(=O)O)cc2Cl)cccc1-c1cccc(OCCCN2CCC(CO)(C(=O)O)C2)c1C (stereo partly drawn) [Example 1052, 1-(3-((3′-((4-((((R)-1-carboxy-2-hydroxyethyl)amino)methyl)-2-chloro-5-((5-cyanopyridin-3-yl)methoxy)phenoxy)methyl)-2,2′-dimethyl-[1,1′-biphenyl]-3-yl)oxy)propyl)-3-(hydroxymethyl)pyrrolidine-3-carboxylic Acid]
Cc1c(COc2cc(OCc3cncc(C(N)=O)c3)c(CN[C@H](CO)C(=O)O)cc2Cl)cccc1-c1cccc(OCCCN2CCC(CO)(C(=O)O)C2)c1C (stereo partly drawn) [Example 1053, 1-(3-((3′-((5-((5-carbamoylpyridin-3-yl)methoxy)-4-((((R)-1-carboxy-2-hydroxyethyl)amino)methyl)-2-chlorophenoxy)methyl)-2,2′-dimethyl-[1,1′-biphenyl]-3-yl)oxy)propyl)-3-(hydroxymethyl)pyrrolidine-3-carboxylic Acid]
Cc1c(COc2cc(OCc3cncc(C#N)c3)c(CN[C@](C)(CO)C(=O)O)cc2Cl)cccc1-c1cccc(OCCCN2CCC(O)(C(=O)O)C2)c1C (stereo partly drawn) [Example 1054, 1-(3-((3′-((4-((((R)-2-carboxy-1-hydroxypropan-2-yl)amino)methyl)-2-chloro-5-((5-cyanopyridin-3-yl)methoxy)phenoxy)methyl)-2,2′-dimethyl-[1,1′-biphenyl]-3-yl)oxy)propyl)-3-hydroxypyrrolidine-3-carboxylic Acid]
COC(=O)C1(O)CCN(CCCOc2cccc(-c3cccc(COc4cc(OCc5cncc(S(C)(=O)=O)c5)c(CN[C@](C)(CO)C(=O)O)cc4Cl)c3C)c2C)C1 (stereo partly drawn) [Example 1055, (2R)-2-((5-chloro-4-((3′-(3-(3-hydroxy-3-(methoxycarbonyl)pyrrolidin-1-yl)propoxy)-2,2′-dimethyl-[1,1′-biphenyl]-3-yl)methoxy)-2-((5-(methylsulfonyl)pyridin-3-yl)methoxy)benzyl)amino)-3-hydroxy-2-methylpropanoic Acid]
COC(=O)C1(O)CCN(CCCOc2cccc(-c3cccc(COc4cc(OCc5cncc(S(C)(=O)=O)c5)c(CN[C@H](CO)C(=O)O)cc4Cl)c3C)c2C)C1 (stereo partly drawn) [Example 1056, (2R)-2-((5-chloro-4-((3′-(3-(3-hydroxy-3-(methoxycarbonyl)pyrrolidin-1-yl)propoxy)-2,2′-dimethyl-[1,1′-biphenyl]-3-yl)methoxy)-2-((5-(methylsulfonyl)pyridin-3-yl)methoxy)benzyl)amino)-3-hydroxypropanoic Acid]
